This note sets out measurements from ChEMBL document CHEMBL1201862, “PubChem BioAssay data set” (2004).

Assay [1] in a line: alpha-synuclein stem-loop luciferase translation blockers – H4 neuroglioma cells, luminescence, confirmation (AID 1988). In kind it is functional, cell-based.
The target in a further assay is Phospholipase A2 (Homo sapiens, UniProt P04054). In kind it is functional.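 Further: confirmatory dose-response counterscreen on phospholipase A2, testing hits that came from an ultra-high-throughput screen for ATG4B inhibitors.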
Sequence of Phospholipase A2 (P04054 whole entry): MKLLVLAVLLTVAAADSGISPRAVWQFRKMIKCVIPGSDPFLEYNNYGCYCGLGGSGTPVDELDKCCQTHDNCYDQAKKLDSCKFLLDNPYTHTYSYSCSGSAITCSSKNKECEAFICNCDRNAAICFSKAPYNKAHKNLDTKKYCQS
The next assay relates to INS1. The assay can be described thus: INS-1E survival protection against cytokine death – cell-based, luminescence, retest, dose response (AID 449756).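 Further: cell death triggered by IL-1 beta plus TNF-alpha plus IFN-gamma mixture; protective hits raise ATP signal compared with cytokine alone wells.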 The conditions noted are these: Rattus norvegicus. In kind it is functional.
The target of assay [2] is Protein kinase C theta type (Homo sapiens, UniProt Q04759). Nature of the assay: Navigating the Kinome. Panel member name: PRKCQ. In kind it is functional.
Assay [3] has as its target cGMP-dependent protein kinase 1 (Homo sapiens, UniProt Q13976). In kind it is functional.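 Further: value from a kinome panel screen with PRKG1 as the panel member.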
Assay [4] deals with Serine/threonine-protein kinase PLK3 (Homo sapiens, UniProt Q9H4B4). In kind it is functional.
In assay [5] the target is ALK tyrosine kinase receptor (Homo sapiens, UniProt Q9UM73). In kind it is functional.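 Further: ALK tested as one member of a kinase panel screen.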
Assay [6] has as its target Serine/threonine-protein kinase PLK4 (Homo sapiens, UniProt O00444). In kind it is functional.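 Further: PLK4 measured as one member of a kinome-wide kinase profiling panel.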
Another assay deals with Activin receptor type-1 (Homo sapiens, UniProt Q04771). The assay can be described thus: Navigating the Kinome. Panel member name: ACVR1. In kind it is functional.
Sequence of Activin receptor type-1 (Q04771 whole entry): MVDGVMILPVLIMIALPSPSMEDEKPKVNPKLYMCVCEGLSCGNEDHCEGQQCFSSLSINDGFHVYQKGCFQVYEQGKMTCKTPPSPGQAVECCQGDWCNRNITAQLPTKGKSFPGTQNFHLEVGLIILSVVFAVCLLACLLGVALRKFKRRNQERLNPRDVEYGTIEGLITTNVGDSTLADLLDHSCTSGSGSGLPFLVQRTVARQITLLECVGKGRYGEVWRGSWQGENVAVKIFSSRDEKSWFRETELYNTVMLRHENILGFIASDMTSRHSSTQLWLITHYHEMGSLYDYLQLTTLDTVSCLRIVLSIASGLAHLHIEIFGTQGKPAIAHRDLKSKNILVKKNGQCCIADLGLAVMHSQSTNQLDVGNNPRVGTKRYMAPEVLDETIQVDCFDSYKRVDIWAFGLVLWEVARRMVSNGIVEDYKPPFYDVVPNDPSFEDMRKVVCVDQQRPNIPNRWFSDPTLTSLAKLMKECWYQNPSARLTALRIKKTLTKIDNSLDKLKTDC
Assay [7] concerns the target Calcium/calmodulin-dependent protein kinase type II subunit delta (Homo sapiens, UniProt Q13557). In kind it is functional.
Assay [8] deals with Casein kinase I isoform alpha (Homo sapiens, UniProt P48729). In kind it is functional.
Assay [9] addresses Serine/threonine-protein kinase N2 (Homo sapiens, UniProt Q16513). In kind it is functional.
Assay [10] deals with Serine/threonine-protein kinase TAO1 (Homo sapiens, UniProt Q7L7X3). In kind it is functional.
For a further assay, the target named is Insulin receptor (Homo sapiens, UniProt P06213). In kind it is functional.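 Further: insulin receptor kinase tested as one member of a kinome-wide kinase panel.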
The target in assay [11] is Mitogen-activated protein kinase 13 (Homo sapiens, UniProt O15264). In kind it is functional.
In assay [12] the target is Serine/threonine-protein kinase pim-3 (Homo sapiens, UniProt Q86V86). In kind it is functional.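 Further: value obtained as one member of a broad kinase panel profiling effort.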
The target of assay [13] is Dual specificity tyrosine-phosphorylation-regulated kinase 3 (Homo sapiens, UniProt O43781). In kind it is functional.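 Further: measured as one member of a broad kinase panel.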
Assay [14] deals with Casein kinase I isoform delta (Homo sapiens, UniProt P48730). In kind it is functional.
Assay [15] concerns the target MAP kinase-interacting serine/threonine-protein kinase 2 (Homo sapiens, UniProt Q9HBH9). In kind it is functional.
The target of assay [16] is Cyclin-dependent kinase 5 (Homo sapiens, UniProt Q00535). In kind it is functional.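 Further: CDK5 measured as one member of a kinase profiling panel.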
Assay [17] addresses Platelet-derived growth factor receptor alpha (Homo sapiens, UniProt P16234). Nature of the assay: Navigating the Kinome. Panel member name: PDGFRA. In kind it is functional.
The target in assay [18] is Interleukin-1 receptor-associated kinase 4 (Homo sapiens, UniProt Q9NWZ3). In kind it is functional.
Assay [19] concerns the target Rho-associated protein kinase 1 (Homo sapiens, UniProt Q13464). In kind it is functional.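 Further: measured within a broad kinome-wide panel profiling many kinases.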
For assay [20], the target named is Tyrosine-protein kinase Fer (Homo sapiens, UniProt P16591). In kind it is functional.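 Further: FER tested as one member of a kinome panel.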
Assay [21] deals with Vascular endothelial growth factor receptor 1 (Homo sapiens, UniProt P17948). In kind it is functional.
Assay [22] deals with BDNF/NT-3 growth factors receptor (Homo sapiens, UniProt Q16620). In kind it is functional.
Sequence of BDNF/NT-3 growth factors receptor (Q16620 whole entry): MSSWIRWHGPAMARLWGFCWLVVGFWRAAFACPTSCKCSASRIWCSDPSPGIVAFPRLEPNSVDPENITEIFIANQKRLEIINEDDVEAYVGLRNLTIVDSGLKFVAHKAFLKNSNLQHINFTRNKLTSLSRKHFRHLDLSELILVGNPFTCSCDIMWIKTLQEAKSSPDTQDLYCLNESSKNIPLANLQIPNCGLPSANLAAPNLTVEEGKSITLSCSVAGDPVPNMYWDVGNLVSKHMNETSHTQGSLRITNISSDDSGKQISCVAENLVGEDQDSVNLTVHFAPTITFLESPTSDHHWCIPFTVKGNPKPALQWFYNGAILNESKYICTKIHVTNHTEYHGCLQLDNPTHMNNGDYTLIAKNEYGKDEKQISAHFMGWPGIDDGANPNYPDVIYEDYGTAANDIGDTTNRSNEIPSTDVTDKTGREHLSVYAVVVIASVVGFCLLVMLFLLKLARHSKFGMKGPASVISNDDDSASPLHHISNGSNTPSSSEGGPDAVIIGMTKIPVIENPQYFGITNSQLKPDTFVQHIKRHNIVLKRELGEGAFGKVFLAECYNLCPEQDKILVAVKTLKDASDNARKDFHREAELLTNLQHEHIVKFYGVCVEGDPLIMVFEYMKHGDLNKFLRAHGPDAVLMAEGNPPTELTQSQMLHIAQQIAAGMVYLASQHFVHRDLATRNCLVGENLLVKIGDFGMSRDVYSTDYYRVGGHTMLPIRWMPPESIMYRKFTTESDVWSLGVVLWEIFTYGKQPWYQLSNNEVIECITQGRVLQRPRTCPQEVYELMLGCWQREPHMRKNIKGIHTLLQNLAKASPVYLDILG
In assay [23] the target is Mitogen-activated protein kinase 12 (Homo sapiens, UniProt P53778). In kind it is functional.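 Further: measured as one member of a kinome-wide kinase profiling panel.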
Sequence of Mitogen-activated protein kinase 12 (P53778 whole entry): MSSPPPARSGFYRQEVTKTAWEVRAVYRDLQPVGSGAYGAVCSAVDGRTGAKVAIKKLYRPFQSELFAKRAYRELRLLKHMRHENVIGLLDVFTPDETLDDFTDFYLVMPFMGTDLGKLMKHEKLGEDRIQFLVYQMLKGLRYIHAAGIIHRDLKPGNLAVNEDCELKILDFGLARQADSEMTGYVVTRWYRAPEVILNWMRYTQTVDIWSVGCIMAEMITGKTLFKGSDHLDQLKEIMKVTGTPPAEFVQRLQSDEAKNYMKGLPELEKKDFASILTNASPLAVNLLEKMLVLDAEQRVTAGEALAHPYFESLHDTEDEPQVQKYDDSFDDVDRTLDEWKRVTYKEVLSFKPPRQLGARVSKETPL
Assay [24] addresses Serine/threonine-protein kinase BRSK1 (Homo sapiens, UniProt Q8TDC3). In kind it is functional.
Assay [25] has as its target Dual specificity mitogen-activated protein kinase kinase 2 (Homo sapiens, UniProt P36507). Nature of the assay: Navigating the Kinome. Panel member name: MAP2K2. In kind it is functional.
Another assay concerns the target T1, Aminopeptidase N (Plasmodium falciparum FcB1/Columbia, UniProt O96935).
T1 sequence (O96935 whole entry): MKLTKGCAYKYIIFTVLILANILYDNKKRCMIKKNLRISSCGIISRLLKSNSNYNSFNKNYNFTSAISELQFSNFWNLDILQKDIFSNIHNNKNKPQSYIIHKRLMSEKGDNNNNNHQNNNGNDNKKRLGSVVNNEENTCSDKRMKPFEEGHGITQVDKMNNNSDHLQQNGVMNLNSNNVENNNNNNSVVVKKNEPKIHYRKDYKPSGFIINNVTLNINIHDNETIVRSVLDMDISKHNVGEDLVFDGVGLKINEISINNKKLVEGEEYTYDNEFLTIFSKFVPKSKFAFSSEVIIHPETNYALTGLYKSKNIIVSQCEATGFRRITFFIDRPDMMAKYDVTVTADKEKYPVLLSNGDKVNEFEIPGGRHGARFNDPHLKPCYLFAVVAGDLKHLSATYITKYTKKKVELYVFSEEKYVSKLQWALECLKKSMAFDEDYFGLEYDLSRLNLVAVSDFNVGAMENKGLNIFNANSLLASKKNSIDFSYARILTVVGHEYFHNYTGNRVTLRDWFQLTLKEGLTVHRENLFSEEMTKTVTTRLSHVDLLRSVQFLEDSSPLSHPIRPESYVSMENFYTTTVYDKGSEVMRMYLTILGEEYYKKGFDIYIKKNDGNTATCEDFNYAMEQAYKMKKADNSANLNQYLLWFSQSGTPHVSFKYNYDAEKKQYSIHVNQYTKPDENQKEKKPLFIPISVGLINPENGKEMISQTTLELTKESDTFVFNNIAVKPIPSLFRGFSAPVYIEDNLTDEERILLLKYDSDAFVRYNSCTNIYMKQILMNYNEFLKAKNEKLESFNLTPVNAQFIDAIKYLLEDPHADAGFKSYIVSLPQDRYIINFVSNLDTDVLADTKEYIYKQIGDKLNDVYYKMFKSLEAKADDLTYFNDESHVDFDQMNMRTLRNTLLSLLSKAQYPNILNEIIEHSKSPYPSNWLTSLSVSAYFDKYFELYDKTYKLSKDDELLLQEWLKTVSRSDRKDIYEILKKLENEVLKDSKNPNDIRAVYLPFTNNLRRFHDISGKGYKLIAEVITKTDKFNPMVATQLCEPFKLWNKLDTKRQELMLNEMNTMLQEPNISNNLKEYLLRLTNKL
Nature of the assay: malaria alanyl aminopeptidase activity blockers – biochemical, fluorogenic H-Leu-NHMec substrate, 1536-well (AID 1445). Further details: species or system Plasmodium falciparum 3D7, 3D7.

Assay [26] can be described thus: HPDE-C7 pancreatic duct cell viability loss – fluorescence, HTS (AID 430). In kind it is functional, cell-based. The conditions noted are these: Homo sapiens.
A short description of assay [27]: SNU-C1 cell viability reduction, dose response, CellTiter-Glo luminescence (AID 1117323). In kind it is functional, cell-based.

Molecules are shown by their SMILES. Calls of active or inactive are those of the source. Some results are limits rather than exact numbers.

Sequence of Rho-associated protein kinase 1 (Q13464 whole entry): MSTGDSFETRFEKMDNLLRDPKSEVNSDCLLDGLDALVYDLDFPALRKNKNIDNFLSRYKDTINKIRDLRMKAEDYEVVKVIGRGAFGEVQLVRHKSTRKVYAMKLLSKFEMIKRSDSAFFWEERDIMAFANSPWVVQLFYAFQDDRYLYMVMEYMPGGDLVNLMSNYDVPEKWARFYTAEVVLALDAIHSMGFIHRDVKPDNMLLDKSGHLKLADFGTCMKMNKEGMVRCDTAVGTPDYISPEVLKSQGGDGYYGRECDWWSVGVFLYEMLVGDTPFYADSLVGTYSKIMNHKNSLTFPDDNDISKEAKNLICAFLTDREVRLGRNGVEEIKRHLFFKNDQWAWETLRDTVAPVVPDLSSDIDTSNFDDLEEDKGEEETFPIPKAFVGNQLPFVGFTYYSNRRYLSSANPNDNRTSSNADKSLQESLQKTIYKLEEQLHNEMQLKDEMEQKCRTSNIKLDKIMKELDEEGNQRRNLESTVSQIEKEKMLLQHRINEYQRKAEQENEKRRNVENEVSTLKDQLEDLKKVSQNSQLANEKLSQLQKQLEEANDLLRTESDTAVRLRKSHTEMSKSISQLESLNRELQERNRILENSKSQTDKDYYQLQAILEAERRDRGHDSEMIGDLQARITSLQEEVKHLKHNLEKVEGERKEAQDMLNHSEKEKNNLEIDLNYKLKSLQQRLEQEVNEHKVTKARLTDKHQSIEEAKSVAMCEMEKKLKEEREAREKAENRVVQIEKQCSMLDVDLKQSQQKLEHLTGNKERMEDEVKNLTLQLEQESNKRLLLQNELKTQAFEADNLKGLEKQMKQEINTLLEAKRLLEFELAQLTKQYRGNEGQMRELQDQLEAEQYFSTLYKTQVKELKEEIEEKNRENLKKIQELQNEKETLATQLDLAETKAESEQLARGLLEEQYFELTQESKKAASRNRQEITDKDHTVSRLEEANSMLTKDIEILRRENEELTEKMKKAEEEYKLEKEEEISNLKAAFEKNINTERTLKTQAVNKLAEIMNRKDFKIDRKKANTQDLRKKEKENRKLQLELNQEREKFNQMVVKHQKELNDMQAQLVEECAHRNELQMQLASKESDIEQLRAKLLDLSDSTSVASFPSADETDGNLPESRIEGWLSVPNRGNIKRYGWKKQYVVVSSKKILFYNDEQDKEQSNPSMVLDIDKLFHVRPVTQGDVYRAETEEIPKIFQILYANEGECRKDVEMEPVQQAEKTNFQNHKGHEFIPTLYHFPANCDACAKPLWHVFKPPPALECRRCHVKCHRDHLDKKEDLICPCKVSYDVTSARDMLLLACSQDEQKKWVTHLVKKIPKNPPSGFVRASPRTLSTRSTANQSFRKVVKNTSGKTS
Sequence of Platelet-derived growth factor receptor alpha (P16234 whole entry): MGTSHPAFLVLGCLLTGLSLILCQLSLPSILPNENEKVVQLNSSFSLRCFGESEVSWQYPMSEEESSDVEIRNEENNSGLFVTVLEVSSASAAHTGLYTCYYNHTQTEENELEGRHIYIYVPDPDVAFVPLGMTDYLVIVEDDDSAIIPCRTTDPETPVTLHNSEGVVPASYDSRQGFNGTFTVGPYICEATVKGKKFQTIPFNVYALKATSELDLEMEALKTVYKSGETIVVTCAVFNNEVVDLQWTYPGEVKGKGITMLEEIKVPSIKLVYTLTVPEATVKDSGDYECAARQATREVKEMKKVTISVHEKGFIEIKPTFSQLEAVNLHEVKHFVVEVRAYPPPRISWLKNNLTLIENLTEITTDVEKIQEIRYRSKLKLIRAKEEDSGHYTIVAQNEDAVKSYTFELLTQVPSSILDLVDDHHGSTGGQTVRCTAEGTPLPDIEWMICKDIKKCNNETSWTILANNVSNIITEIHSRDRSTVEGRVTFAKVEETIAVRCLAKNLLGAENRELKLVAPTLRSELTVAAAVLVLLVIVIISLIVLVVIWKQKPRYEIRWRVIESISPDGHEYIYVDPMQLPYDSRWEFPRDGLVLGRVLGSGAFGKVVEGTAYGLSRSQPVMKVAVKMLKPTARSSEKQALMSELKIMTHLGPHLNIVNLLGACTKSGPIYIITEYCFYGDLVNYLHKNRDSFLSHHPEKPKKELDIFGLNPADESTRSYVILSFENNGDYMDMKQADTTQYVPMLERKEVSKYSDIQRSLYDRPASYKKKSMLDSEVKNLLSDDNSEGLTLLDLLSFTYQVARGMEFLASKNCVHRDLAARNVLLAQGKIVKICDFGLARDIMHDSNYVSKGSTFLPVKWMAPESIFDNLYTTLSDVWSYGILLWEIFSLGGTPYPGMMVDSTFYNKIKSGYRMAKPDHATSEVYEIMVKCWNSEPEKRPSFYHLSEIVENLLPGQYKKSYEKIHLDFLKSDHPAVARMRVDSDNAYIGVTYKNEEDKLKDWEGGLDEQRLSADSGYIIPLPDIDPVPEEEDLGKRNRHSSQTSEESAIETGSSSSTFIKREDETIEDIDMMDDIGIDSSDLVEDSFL
Sequence of Serine/threonine-protein kinase BRSK1 (Q8TDC3 whole entry): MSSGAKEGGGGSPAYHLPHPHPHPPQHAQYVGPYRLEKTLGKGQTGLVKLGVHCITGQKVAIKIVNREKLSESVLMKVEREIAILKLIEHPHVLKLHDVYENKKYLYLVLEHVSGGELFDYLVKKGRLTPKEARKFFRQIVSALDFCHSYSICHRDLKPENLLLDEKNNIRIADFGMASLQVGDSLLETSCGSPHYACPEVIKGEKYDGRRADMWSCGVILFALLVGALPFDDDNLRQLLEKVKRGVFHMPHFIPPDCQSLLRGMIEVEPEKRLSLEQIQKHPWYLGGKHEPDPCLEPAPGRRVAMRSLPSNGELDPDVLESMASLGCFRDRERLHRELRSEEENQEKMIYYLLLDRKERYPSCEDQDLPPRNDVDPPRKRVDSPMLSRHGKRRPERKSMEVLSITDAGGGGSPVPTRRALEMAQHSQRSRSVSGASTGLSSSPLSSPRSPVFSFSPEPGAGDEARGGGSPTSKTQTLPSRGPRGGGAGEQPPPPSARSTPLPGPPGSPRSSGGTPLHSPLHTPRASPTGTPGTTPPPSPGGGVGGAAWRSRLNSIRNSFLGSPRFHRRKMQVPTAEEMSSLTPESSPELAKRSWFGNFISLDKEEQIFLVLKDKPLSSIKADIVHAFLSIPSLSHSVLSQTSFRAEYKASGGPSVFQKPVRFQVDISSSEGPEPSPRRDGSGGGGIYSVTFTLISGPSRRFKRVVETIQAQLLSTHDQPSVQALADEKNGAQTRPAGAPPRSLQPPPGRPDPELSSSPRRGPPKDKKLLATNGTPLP

As to `O=C1C=C(N2CCOCC2)c2ccccc2C1=O`, in assay [1], the EC50 was 8.41 µM (active). For the same compound, the IC50 on Phospholipase A2 is > 80 µM (inactive). Also, the AC50 in the assay on INS1 is 4.72 µM (active).

Regarding `N#Cc1ccc2[nH]c(O)c(-c3ccc(CN4CCOCC4)cn3)c2c1` [AZD-1080], the Ki in [2] was > 2.51 µM (inactive); in assay [3], > 2 µM (inactive); in assay [4], > 7.94 µM (inactive); in [5], > 3.98 µM (inactive); in assay [6], > 3.98 µM (inactive); on Activin receptor type-1 it was > 3.98 µM (inactive). Besides, the Ki was > 6.31 µM (inactive) in [7]; > 5.01 µM (inactive) in assay [8]; > 6.31 µM (inactive) in assay [9]; > 7.94 µM (inactive) in [10]; > 5.01 µM (inactive) on Insulin receptor; > 7.94 µM (inactive) in assay [11]. For the same compound, the Ki in assay [12] was 3.98 µM (active); in assay [13], 1 µM (active); in assay [14], > 7.94 µM (inactive); in assay [15], > 10 µM (inactive); in assay [16], 0.398 µM (active); in assay [17], > 2.51 µM (inactive). Also, the Ki in assay [18] is > 10 µM (inactive); in [19], > 7.94 µM (inactive); in assay [20] it was > 1.58 µM (inactive); in [21] it was > 2.51 µM (inactive); in assay [22], > 3.98 µM (inactive); in assay [23] it was > 6.31 µM (inactive). Also, the figures for the Ki in assay [24] and in [25] were > 7.94 µM (inactive) and > 3.98 µM (inactive), respectively.

Take `CCc1oc2ccccc2c1C(=O)c1cc(Br)c(O)c(Br)c1` [BENZBROMARONE]: the IC50 at Aminopeptidase N was 62.8 µM (active); in assay [27], 0.105 µM (active). Besides, the EC50 in [26] was 5.71 µM (active).

As a reminder, the EC50 is the midpoint of the concentration-response curve. Broadly, the IC50 is the concentration that inhibits the measured activity by half. In general, AC50 refers to the concentration at which the activity in the assay is half-maximal. Broadly, the Ki is the equilibrium dissociation constant of an inhibitor or competing ligand from its target.
